ChEMBL document CHEMBL1201862, “PubChem BioAssay data set” (2004)
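Following 48 hours of exposure in 96-well plates, responses at five concentrations were used to interpolate endpoints linearly. The concentration for 50% growth inhibition is given as GI50.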 The source made the active and inactive calls. Rule as the data show it: active = GI50 up to about 1.1 µM and inactive = higher.

How the values were obtained:
Assay in all cases: DTP human tumour cell line panel, 48 h
OVCAR-8 = system: OVCAR-8
SK-OV-3 = system: SK-OV-3
SK-MEL-28 = system: SK-MEL-28
K562 = system: K562
IGROV-1 = system: IGROV-1
EKVX = system: EKVX
SNB-78 = system: SNB-78
M14 = system: M14
KM-20L2 = system: KM-20L2
KM12 = system: KM12
HL-60 = system: HL-60
LOX IMVI = system: LOX IMVI
DMS-114 = system: DMS-114
SNB-19 = system: SNB-19
DLD-1 = system: DLD-1
SF-268 = system: SF-268
SN12C = system: SN12C
HOP-18 = system: HOP-18

Row | SMILES | GI50 (OVCAR-8) | GI50 (SK-OV-3) | GI50 (SK-MEL-28) | GI50 (K562) | GI50 (IGROV-1) | GI50 (EKVX) | GI50 (SNB-78) | GI50 (M14) | GI50 (KM-20L2) | GI50 (KM12) | GI50 (HL-60) | GI50 (LOX IMVI) | GI50 (DMS-114) | GI50 (SNB-19) | GI50 (DLD-1) | GI50 (SF-268) | GI50 (SN12C) | GI50 (HOP-18)
1 | O=C1c2ccccc2C(=O)C1(O)c1c[nH]c2ccccc12 | > 100 µM (inactive) | > 100 µM (inactive) | > 100 µM (inactive) | > 100 µM (inactive) | > 100 µM (inactive) | > 100 µM (inactive) | > 100 µM (inactive) | > 100 µM (inactive) | > 100 µM (inactive) | > 100 µM (inactive) | > 100 µM (inactive) | > 100 µM (inactive) | > 100 µM (inactive) | > 100 µM (inactive) | > 100 µM (inactive) | > 100 µM (inactive) |  | 
2 | N#CC1=C(N)n2c(s/c(=C\c3ccc(Cl)cc3)c2=O)=C(c2nc3ccccc3[nH]2)C1c1ccc(Cl)cc1 (configuration not stated) | 1.81 µM (inactive) |  | 1.53 µM (inactive) | 1.91 µM (inactive) | 2.28 µM (inactive) | 1.88 µM (inactive) |  | 3.62 µM (inactive) | 2.21 µM (inactive) | 1.42 µM (inactive) | 2.04 µM (inactive) | 1.65 µM (inactive) | 1.99 µM (inactive) | 3.28 µM (inactive) | 3.65 µM (inactive) | 2.64 µM (inactive) | 2.19 µM (inactive) | 
3 | O=C(O)CSc1ccc2nc3ccccc3c(O)c2c1 | > 100 µM (inactive) | > 100 µM (inactive) | > 100 µM (inactive) | > 100 µM (inactive) | > 100 µM (inactive) |  |  | > 100 µM (inactive) | > 100 µM (inactive) |  | > 100 µM (inactive) | > 100 µM (inactive) | > 100 µM (inactive) | > 100 µM (inactive) | > 100 µM (inactive) | > 100 µM (inactive) | > 100 µM (inactive) | > 100 µM (inactive)
4 | COc1ccc(C(=O)OCC2OC(n3cnc4c(=S)nc[nH]c43)C(OC(=O)c3ccc(OC)cc3)C2OC(=O)c2ccc(OC)cc2)cc1 (configuration not stated) | 28.5 µM (inactive) |  | > 100 µM (inactive) | 3.27 µM (inactive) | 57 µM (inactive) |  |  | 3.36 µM (inactive) | 8.47 µM (inactive) | 45.6 µM (inactive) | 26.2 µM (inactive) |  | 5.65 µM (inactive) | > 100 µM (inactive) | 11.6 µM (inactive) | 30.1 µM (inactive) |  | 
5 | CC(=O)O[C@]1(C(C)=O)CC[C@H]2[C@@H]3C[C@H](C)C4=CC(=O)C=C[C@]4(C)[C@@]3(F)[C@@H](O)C[C@@]21C [FLUOROMETHOLONE ACETATE] |  | < 0.01 µM (active) | 86.3 µM (inactive) | 48.1 µM (inactive) | 69.5 µM (inactive) | > 100 µM (inactive) | 72.6 µM (inactive) | 48.3 µM (inactive) | > 100 µM (inactive) | > 100 µM (inactive) | 37.6 µM (inactive) | 63.5 µM (inactive) | 53.6 µM (inactive) | > 100 µM (inactive) | 94.6 µM (inactive) | 36.2 µM (inactive) |  | 
6 | CCC1CN2CCC3(c4ccccc4)CC(C(=O)OC)=CC1C23 (configuration not stated) | 17.9 µM (inactive) | 13.3 µM (inactive) | 17.7 µM (inactive) | 9.46 µM (inactive) | 20.4 µM (inactive) | 13.5 µM (inactive) | 19.3 µM (inactive) | 14.8 µM (inactive) | 16.3 µM (inactive) | 15 µM (inactive) |  | 14.6 µM (inactive) |  | 20.4 µM (inactive) | 17.2 µM (inactive) | 14.3 µM (inactive) | 16.1 µM (inactive) | 14.9 µM (inactive)
7 | CC1=C(C(=O)Nc2cccc(Cl)c2)C(c2ccccc2F)C(C(=O)Nc2cccc(Cl)c2)=C(C)N1 | 17 µM (inactive) | 21.5 µM (inactive) | 10.6 µM (inactive) | 4.79 µM (inactive) | 15 µM (inactive) | 6.22 µM (inactive) | 18.7 µM (inactive) | 5.33 µM (inactive) | 7.46 µM (inactive) | 7.55 µM (inactive) | 3.78 µM (inactive) | 7.1 µM (inactive) | 6.32 µM (inactive) | 19.2 µM (inactive) | 10.4 µM (inactive) | 11.8 µM (inactive) | 11 µM (inactive) | 
8 | CCOC(=O)C(=O)Nc1cc(Cl)ccc1Cl | > 100 µM (inactive) | > 100 µM (inactive) | > 100 µM (inactive) | > 100 µM (inactive) | > 100 µM (inactive) | > 100 µM (inactive) |  | > 100 µM (inactive) | > 100 µM (inactive) | > 100 µM (inactive) | > 100 µM (inactive) |  | > 100 µM (inactive) | > 100 µM (inactive) | > 100 µM (inactive) | > 100 µM (inactive) | > 100 µM (inactive) | > 100 µM (inactive)
